Experimental findings from ChEMBL document CHEMBL1154103, “Bioactive conformation analysis of cyclic imides as protoporphyrinogen oxidase inhibitor by combining DFT calculations, QSAR and molecular dynamic simulations” (Bioorg Med Chem, 2009) are described below.

pKi: −log10 of the molar value.

The target in this assay is T1, Protoporphyrinogen oxidase (Bacillus subtilis (strain 168), UniProt P32397).
T1 sequence (P32397 whole entry): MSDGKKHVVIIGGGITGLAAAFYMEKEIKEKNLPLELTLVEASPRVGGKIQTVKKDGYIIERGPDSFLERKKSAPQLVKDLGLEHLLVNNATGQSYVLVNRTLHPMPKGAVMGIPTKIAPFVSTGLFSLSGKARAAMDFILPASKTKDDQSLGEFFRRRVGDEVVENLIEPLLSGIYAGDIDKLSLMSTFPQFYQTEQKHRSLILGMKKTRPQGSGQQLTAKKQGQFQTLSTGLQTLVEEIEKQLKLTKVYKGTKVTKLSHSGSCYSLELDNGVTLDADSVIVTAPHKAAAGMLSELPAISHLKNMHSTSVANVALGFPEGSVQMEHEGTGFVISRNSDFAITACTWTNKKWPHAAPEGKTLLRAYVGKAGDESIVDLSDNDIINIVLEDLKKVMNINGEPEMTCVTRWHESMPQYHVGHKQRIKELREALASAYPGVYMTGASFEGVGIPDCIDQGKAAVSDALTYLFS
The assay can be described thus: Inhibition of Bacillus subtilis Protoporphyrinogen oxidase by capillary electrophoresis.
Broadly, the pKi is −log10 of the Ki, conventionally taken in molar units. Consider `CCOC(=O)C(CC)N1C(=O)COc2cc(F)c(N3C(=O)C4=C(CCCC4)C3=O)cc21` (stereo not given), for which the pKi is 7.35.

The compound `N#CCN1C(=O)COc2cc(F)c(N3C(=O)c4ccccc4C3=O)cc21` had a negative logarithm of the Ki (pKi) of 5.99.

In turn, `O=C(NC(=O)c1c(F)cccc1Cl)Nc1cc(N2C(=O)C3=C(CCCC3)C2=O)c(F)cc1Cl` showed a pKi of 8.08.

The compound `O=C(NC(=O)c1cccc(OC(F)(F)F)c1)Nc1cc(N2C(=O)C3=C(CCCC3)C2=O)c(F)cc1Cl` showed a pKi of 7.47.

As to `O=C(Nc1ccc(Cl)cc1)Nc1cc(N2C(=O)C3=C(CCCC3)C2=O)c(F)cc1Cl`, the pKi is 7.55.

The compound `COC(=O)CN1C(=O)C(C)Oc2cc(F)c(N3C(=O)C4=C(CCCC4)C3=O)cc21` (stereo not given) showed a negative-log Ki (pKi) of 7.40.

Take `O=C(NC(=O)c1c(Cl)cccc1Cl)Nc1cc(N2C(=O)C3=C(CCCC3)C2=O)c(F)cc1Cl`: the negative-log Ki (pKi) was 7.89.

In turn, `CNC(=O)Nc1cc(N2C(=O)C3=C(CCCC3)C2=O)c(F)cc1Cl` gave a pKi of 6.43.

In turn, `CCOC(=O)C(C)N1C(=O)C(C)Oc2cc(F)c(N3C(=O)C4=C(CCCC4)C3=O)cc21` (stereo not given) showed a negative logarithm of the Ki (pKi) of 6.96.

For the compound `CC(C)(CCl)C(=O)Nc1cc(N2C(=O)C3=C(CCCC3)C2=O)c(F)cc1Cl`, the negative-log Ki (pKi) is 6.06.

Take `CCOC(=O)C(C)N1C(=O)COc2cc(F)c(N3C(=O)C4=C(CCCC4)C3=O)cc21` (stereo not given): the negative logarithm of the Ki (pKi) was 6.92.

As to `C#CCN1C(=O)C(C)Oc2cc(F)c(N3C(=O)c4ccc(C)cc4C3=O)cc21` (stereo not given), the negative-log Ki (pKi) was 5.32.

`COC(=O)C(C)N1C(=O)C(C)Oc2cc(F)c(N3C(=O)C4=C(CCCC4)C3=O)cc21` (stereo not given) gave a negative logarithm of the Ki (pKi) of 7.31.

`CCC(C(=O)OC)N1C(=O)COc2cc(F)c(N3C(=O)C4=C(CCCC4)C3=O)cc21` (stereo not given) had a negative-log Ki (pKi) of 8.09.

`O=C(NC(=O)c1ccccc1)Nc1cc(N2C(=O)C3=C(CCCC3)C2=O)ccc1Cl`: the negative-log Ki (pKi) was 5.21.

Compound `O=C(NC(=O)c1ccc(Cl)cc1Cl)Nc1cc(N2C(=O)C3=C(CCCC3)C2=O)c(F)cc1Cl` had a negative-log Ki (pKi) of 7.57.

In turn, `C#CCN1C(=O)COc2cc(F)c(N3C(=O)c4ccccc4C3=O)cc21` gave a pKi of 5.48.

Compound `CCCN(CCC)C(=O)Nc1cc(N2C(=O)C3=C(CCCC3)C2=O)ccc1Cl` gave a pKi of 6.54.

For the compound `CCOC(=O)CN1C(=O)C(C)Oc2cc(F)c(N3C(=O)C4=C(CCCC4)C3=O)cc21` (stereo not given), the negative logarithm of the Ki (pKi) was 7.22.

In turn, `O=C(Nc1cccc(C(F)(F)F)c1)Nc1cc(N2C(=O)C3=C(CCCC3)C2=O)c(F)cc1Cl` had a pKi of 7.60.

Turning to `CCOC(=O)C(c1ccccc1)N1C(=O)C(C)Oc2cc(F)c(N3C(=O)C4=C(CCCC4)C3=O)cc21` (stereo not given), the pKi was 7.04.

In turn, `CC(C)N(C(=O)Nc1cc(N2C(=O)C3=C(CCCC3)C2=O)c(F)cc1Cl)C(C)C` gave a pKi of 6.64.

`C#CCN1C(=O)COc2cc(F)c(N3C(=O)c4ccc(C)cc4C3=O)cc21` showed a negative logarithm of the Ki (pKi) of 5.55.

Regarding `O=C(NC(=O)c1ccccc1)Nc1cc(N2C(=O)C3=C(CCCC3)C2=O)c(F)cc1Cl`, the pKi was 7.05.

`C#CCN1C(=O)C(C)Oc2cc(F)c(N3C(=O)c4cccc(F)c4C3=O)cc21` (stereo not given) gave a negative-log Ki (pKi) of 5.30.
